Data published in US20050239754A1 (priority 2003, published 2005).

Assay: Pseudo-titration in water with IRA-400(OH) anion exchange resin, samples assayed by HPLC
Format: physicochemical
Method: 60 g of Amberlite IRA400 (OH) resin was prewashed with 4.7 percent (by weight) ammonium hydroxide (50 ml of 28 percent ammonium hydroxide, 250 ml deionized water), followed by extensive washing with deionized water. The final conductivity was 6.1 μS.
Samples containing about 0.9 g of S-[2-[(1-Iminoethyl)amino]ethyl]-2-methyl-L-cysteine di-hydrochloride in 142 ml HCl/water solution, were concentrated on a rotary evaporator at 60° C. to an oil. To the oil, diluted to 60 ml with deionized water, was added aliquots of 0.5 g of washed anion exchange resin while stirring. At five minutes after each aliquot of resin was added, the solution pH was measured and a sample removed through a syringe filter. A total of 9 g of anion exchange resin was added. The final pH was 10.8. The resin was removed by filtration and the filtrate was concentrated to an oil by rotary evaporation at 60° C.; no solids formed. The starting material, final filtrate and all intermediate samples were assayed by HPLC and ion chromatography for chloride.
The diamond (solid line) is pH and square (dashed line) is S-[2-[(1-Iminoethyl)amino]ethyl]-2-methyl-L-cysteine (percent initial, by ion chromatography). […] The diamond (solid line) is pH and triangle (broken line) is chloride (by ion chromatography).
These curves are not true titration curves since samples were withdrawn during the progress of the reaction, and since true equilibrium was not attained before the increments of resin were added. Nevertheless, the graphs of FIG. 2 and FIG. 3 illustrate the expected trends. As resin is added to the S-[2-[(1-Iminoethyl)amino]ethyl]-2-methyl-L-cysteine solution the pH rises with change in slope around pH's of 2, 9 and 11. The pH's of slower rise are representative of the pK's of the carboxylic acid, amine and amidine functional groups, respectively. Above a pH of 10, the S-[2-[(1-Iminoethyl)amino]ethyl]-2-methyl-L-cysteine concentration in solution decreases. At this point, the S-[2-[(1-Iminoethyl)amino]ethyl]-2 methyl-L-cysteine is gaining a net negative charge and is binding to the resin. […] The final chloride content is approximately 0.04 mol equivalents.

[1] = pseudo-titration with anion exchange resin in water, not true titration curves

pH of slower rise representative of the pK of the amidine [1]: ~11
pH of slower rise representative of the pK of the amine [1]: ~9
pH of slower rise representative of the pK of the carboxylic acid [1]: ~2
Degradation by HPLC assay of the titration samples (samples up to final pH 10.8): no degradation
Structure (SMILES): CC(=N)NCCSC[C@](C)(N)C(=O)O [S-[2-[(1-Iminoethyl)amino]ethyl]-2-methyl-L-cysteine]
